Columns and labels:
CD8^+ T cells = test: Ex vivo polyclonal immune activation model: intracellular cytokine production in CD8+ T cells (flow cytometry); format: cell-based, human; settings: 250 μM, 18 hours, PBMCs stimulated with anti-CD3 and anti-CD28 antibodies; p<0.05 Mann-Whitney U test
Protocol: Heparinized venous blood was collected from healthy human adult donors. Peripheral blood mononuclear cells (PBMCs) were isolated by Ficoll-Hypaque density-gradient centrifugation. PBMCs (1.0×10^6) were seeded in round-bottom, 96-well plates in 200 μL of medium, unstimulated or stimulated with an anti-CD3 antibody ([…], clone-HIT3a, Biolegend) plus an anti-CD28 antibody (1 μg/mL, clone-CD28.2, Biolegend) to induce T-cell activation, and incubated in cell-culture medium. The PBMCs were unstimulated or stimulated with anti-CD3 and anti-CD28 antibodies to induce T-cell activation, in the absence or presence of 250 μM NRH. After 18 hours of incubation, lymphocytes were analyzed for intracellular levels of IFN-γ, TNF-α and IL-2 by flow cytometry. Intracellular cytokine production was stopped by treating the cells with Golgi stop after 1 hr of treatment.

red blood cells (RBCs) = test: H2O2-induced hemolysis in vitro; format: cell-based; settings: 2000, 200 and 20 μM, pre-incubation 1 hr at 37° C., then H2O2 4 hr
Protocol: Individual test compounds were dissolved in 0.9% normal saline to prepare 0.3 M stock solutions. A 0.3 M stock solution was added to a 20% suspension of washed red blood cells (RBCs) in saline to obtain final concentrations of 2000 μM, 200 μM and 20 μM of the compound. The RBC suspensions were incubated with the test compound at 37° C. for 1 hr prior to testing. A 2.5% H2O2 solution was prepared fresh by dilution with normal saline and chilled at 2-8° C. before use. Each RBC suspension containing the test compound was split into tubes A and B. 250 μL of the chilled H2O2 solution was added to 250 μL of RBC suspension in each tube while maintaining the tubes in an ice bath. The tubes were incubated at 37° C. for 4 hr, and then 4.5 mL of saline or de-ionized water was added to tube A or tube B, respectively. After the tubes were incubated for 10 min, the mixture in the tubes was centrifuged at 1800 g, and then absorbance was measured in the supernatant at 540 nm. The percentage of hemolysis was calculated as: […]

RBC hemoglobin = test: H2O2-induced oxidative changes of RBC hemoglobin in vitro (spectral scans); format: cell-based, human
Protocol: A 4 M stock solution of sodium azide was prepared. One mL of the 4 M stock azide solution was diluted with 9 mL of phosphate-buffered saline (PBS, pH 7.4) to obtain a 0.4 M stock solution, which was further diluted with PBS to obtain a 0.01 M working solution of sodium azide. Eight mL of whole blood was collected in buffered acid citrate dextrose tubes from a healthy human donor. PBS was added to 500 μL of whole blood. The samples were centrifuged, and then the supernatant from each tube was discarded to obtain a red blood cell (RBC) pellet. Ten μL of 0.01 M sodium azide working solution was added to 20 μL of RBC suspension. Twenty μL of hydrogen peroxide (H2O2) diluted in PBS was added to the RBC suspension to obtain final concentrations of H2O2 ranging from 0.01 mM to 100 mM. The samples were incubated at 37° C. for 1.5 hr. 950 μL of de-ionized water was added to the samples, which were then incubated for 10 min to lyse the RBCs and obtain hemoglobin upon centrifugation at 1,500 g. Spectral scans of the lysed samples between 200 nm and 1100 nm were obtained in 2 nm increments, using a Systronics® dual-beam UV-spectrophotometer and de-ionized water as a blank. Samples incubated with PBS at 37° C. for 1-1.5 hr were used as controls to establish the oxidative effects of H2O2 on RBC hemoglobin. Absorbance at 576 nm is a measure of hemoglobin concentration in a sample, and oxidation of hemoglobin to methemoglobin results in a drop in absorbance at 576 nm and an increase in absorbance at 630 nm. Fantao et al., Anal. Biochem., 521:11-19, (2017). Stock solutions of NRH (29.6 mM) and NR (18.3 mM) were prepared in 0.9% normal saline. Appropriate quantities of the stock NRH or NR solution and PBS were added to 500 μL of whole blood to obtain final concentrations of NRH or NR ranging from 1 μM to 1000 μM. The whole blood samples with NRH or NR were mixed gently and incubated at 37° C. for 1-1.5 hr. The samples were centrifuged, and then the supernatant was discarded to obtain an RBC pellet for each sample.

[1] = Distribution of intraperitoneally injected NRH to whole blood, kidney and liver (LCMS/MS); format: in vivo, Wistar Han rat; settings: single intraperitoneal injection, 500 mg/kg, after 4 hr
Protocol: Freshly weighed NRH (100 mg) was dissolved in 500 μL sterile IP water. The NRH solution was intraperitoneally injected into a healthy, male Wistar Han rat (200 g) at a single dose of 500 mg/kg. 500 μL of sterile IP water was intraperitoneally injected into another healthy, male Wistar Han rat (200 g) as a control.
The animals were euthanized by cervical dislocation under anesthesia after 4 hr. Whole blood was collected in K2EDTA vacutainer tubes by cardiac puncture using a 2 mL syringe. The liver and kidney were harvested subsequently by dissection. The tissues were placed in a petridish, rinsed with ice-cold saline, and then weighed. 72 mg of liver of the treated animal and 74.3 mg of liver of the untreated animal were homogenized, and 71.6 mg of kidney of the treated animal and 70.7 mg of kidney of the untreated animal were homogenized. Homogenization of the tissues was carried out separately in 3 mL of ice-cold methanol (about 20 mg/mL of tissue in methanol). The homogenate was snap-frozen in liquid nitrogen and maintained at −80° C. for analysis. The blood samples were maintained at 2-8° C. for analysis.
250 μL of whole blood from the K2EDTA tubes was added to a tube containing 50 μL of 500 ng/ml of tolbutamide as the internal standard. 600 μL of ice-cold HPLC-grade methanol was added to this mixture for extraction of nicotinamide adenine dinucleotide (NAD^+) and NRH. The resulting mixture was mixed well and centrifuged at 12500 rpm for 10 min. The supernatant was measured for NAD^+ and NRH by LCMS/MS. For the liver and kidney tissues, 250 μL of the tissue homogenate was processed in the same manner.

SMILES: NC(=O)C1=CN([C@@H]2O[C@H](CO)[C@@H](O)[C@H]2O)C=CC1 [NRH, N-(β-D-ribofuranosyl)dihydronicotinamide]
- production of IFN-γ in activated CD8+ T cells (CD8^+ T cells): significantly reduced
- production of IL-2 in activated CD8+ T cells (CD8^+ T cells): significantly reduced
- production of TNF-α in activated CD8+ T cells (CD8^+ T cells): significantly reduced
- H2O2-induced hemolysis (red blood cells (RBCs)): reduced H2O2-induced hemolysis
- A576/A630 ratio (a measure of the hemoglobin/methemoglobin ratio) (RBC hemoglobin; RBCs exposed to 1 mM H2O2, 1 μM or 100 μM NRH, NR data not shown): restored
- protection of hemoglobin from 1 mM H2O2-induced oxidative changes (amplitude of absorbance peaks at 576, 540, 434, 348 and 270 nm) (RBC hemoglobin; pre-incubation of RBCs with 1, 10 and 100 µM): protected hemoglobin
- concentration of NRH in the kidney (area ratio NRH/IS) versus vehicle [1]: increased concentrations
- concentration of NRH in the liver (area ratio NRH/IS) versus vehicle [1]: increased concentrations
- concentration of NRH in whole blood (area ratio NRH/IS) versus vehicle [1]: increased concentrations

Reference: US20250367229A1, “Treatment of Immune-Related Disorders, Kidney Disorders, Liver Disorders, Hemolytic Disorders, and Oxidative Stress-Associated Disorders Using NRH, NARH and Reduced Derivatives Thereof” (MitoPower LLC, priority 2021, published 2025)
